Reference: patent publication US7381731B2, “Pharmaceutical composition comprising citrulline” (Angiogenix, Inc., priority 1994, dated 2008)

Key:
[1] = system: y^+ transporter; assay: y+ transport of [3H]-LA in cells exposed to NOS agonists or NO donors, sodium-free uptake buffer; assay type: cell-based, bovine; settings: for maximum inhibition of y+ transport: FIG. 16; for inhibition of L-arginine transport: data not shown; for increase of [3H]-LA uptake: Ach 5 μM; for increase of y+ transport of L-arginine / increase of y+ transporter activity from control: SP 1 μM
Description: Effect of NOS agonists on cellular uptake of LA.
Effect of NO donors on cellular uptake of LA.
In order to confirm whether the reduction in cellular uptake of [^3H]-LA was due to NO released from SNAP, experiments were performed using another NO donor, DPTA-NONOate. Unlike SNAP, which donates large amounts of NO over a short time period (t1/2˜10 minutes), the use of DPTA-NONOate allows for a slower (t1/2˜5 hours), more sustained release of NO that is constant over time.

[2] = system: bovine aortic endothelial cells (BAEC); assay: Superoxide anion (O2*—) formation in BAEC; assay type: cell-based; settings: for increase of O2*— production above basal levels: 1 μM; for increase of O2*— production above basal levels / prevention of basal production of O2*—: 60 minute period; for inhibition of O2*— production induced by A-23187: A-23187 1 μM; for inhibition of O2*— production induced by A-23187 / reduction of O2*— induced by SP: concurrent treatment 5×10^−4M; for reduction of O2*— induced by SP: SP 1 μM; for prevention of basal production of O2*—: supplementation 5×10^−4M
Text: Cellular superoxide anion formation—Effect of NOS agonists on cellular superoxide anion formation.

[3] = system: cultured bovine aortic EC; assay: DOX as NOS agonist: NO production by oxyhemoglobin/methemoglobin conversion and NO sensitive electrode; assay type: cell-based
Description: In fact, a wide variety of vasoactive agents (e.g., bradykinin, muscarinic agonists and growth factors) which increase tPA levels are also agonists of nitric oxide synthase (NOS). DOX activity as a NOS agonist was investigated in cultured bovine aortic EC using two methods to assess NO production: conversion of oxyhemoglobin to methamoglobin and a NO sensitive electrode.
For all experiments described herein, human coronary artery endothelial cells (passage 3-5-Clonetics) were maintained at 37°, […] and 5% CO2 in Medium 199 (M199) supplemented with 5% fetal bovine serum (FBS, Hyclone), 10% iron supplemented FBS (Hyclone), thymidine ([…]), penicillin G (100 U mL^−1) and streptomycin (100 μmL^−1). […] Acetylcholine, an eNOS agonist, was used in all experiments as the positive control at concentrations of 10^−7 and 10^−6 M.
Nitric Oxide Measurements. Methemoglobin—The effect of DOX on NO production in EC was determined using a photometric assay for conversion of oxyhemoglobin to methemoglobin. […] Perfusate is then directed into a flow-through cuvette in a dual wavelength spectrophotometer and change in absorbency (415/405 nm) is measured. Experimental stimulation was carried out by 3 min infusion periods of DOX added to buffer perfusion to yield final concentrations of 10^−7 and 10^−6 M. For analysis, we determined the area under the curve for the change in absorbency response/min caused by DOX assuming a one to one correspondence for NO and metHb production, the known stoichiometric balance for this reaction. NO production was measured with a NO meter connected to a polargraphic NO electrode as previously described. The NO sensor probe will be inserted vertically into 24-well plates containing confluent EC such that the tip of the electrode is submerged 2 mm under the surface of medium (above −1 ml). The reaction was initiated when desired concentrations of DOX are added to the well. Calibrations were performed with S-nitroso-acetyl-penicillamine.

[4] = system: bovine aortic endothelial cells (BAEC); assay: NO production by endothelial cells on beads, photometric oxyhemoglobin to methemoglobin assay; assay type: cell-based
Text: NO oxidize; oxyhemoglobin (HbO2) to methemoglobin (metHb) in the following reaction HbO2+NO−metHb+NO3. The amount of NO produced by endothelial cells was quantified by measuring the change in absorbance as HbO2 oxidizes to metHb. Oxyhemoglobin has a absorbance peak at 415 nm, while methb has a 406 nm absorbance peak. By subtracting the absorbance of metHb from HbO2, the concentration of NO can be assessed. The general method was patterned after that of Feelisch et al., (Biochem. and Biophy. Res. Comm. 1991; 180, Nc I:286-293).
The effects of pravastatin on activity of endothelial cells in producing NO were compared with those of actetylcholine, which is known to specifically stimulate NO production by NOS activity.

Compound: CC(=O)N[C@@H](C(=O)O)C(C)(C)SN=O (racemic) [SNAP, s-nitroso-acetyl-penicillamin]
- increase of activity of the y+ transporter ([1]; 200 μM SNAP (0.4 μM NO), ten minutes of exposure): 37%
- elevation of activity of the y+ transporter ([1]; 200 μM SNAP, 30 minute exposure): not seen
- reduction of uptake of [3H]-LA ([1]; 200 μM SNAP, 1 hour): 22%
- reduction of uptake of [3H]-LA ([1]; 200 μM SNAP, 2 hour exposure): 46%
- reduction of uptake of [3H]-LA ([1]; 200 μM SNAP, 3 hour exposure): 45%
- reduction of uptake of [3H]-LA ([1]; 200 μM SNAP, 5 hour exposure): 36%

Compound: CNc1ccc2oc(C[C@H]3O[C@@]4(CC[C@H]3C)O[C@H]([C@H](C)C(=O)c3ccc[nH]3)[C@H](C)C[C@H]4C)nc2c1C(=O)O [A-23187]
- increase of O2*— production above basal levels [2]: 2.5 fold

Compound: COc1cc2nc(N3CCN(C(=O)C4COc5ccccc5O4)CC3)nc(N)c2cc1OC (centres unmarked) [DOX, Doxazosin]
- increase in NO production ([3]; DOX 10^−7-10^−5 M, dose-related): 64-145%

Compound: NCCCN(CCCN)/[N+]([O-])=N/O [DPTA-NONOate, dipropylenetriamine NONOate]
- maximum inhibition of y+ transport ([1]; 0.01 μM, 2 hour exposure): 20%
- effect on y+ system ([1]; 1 μM DPTA-NONOate (2 μM NO), 15 and 30 min): no significant effect
- inhibition of L-arginine transport ([1]; 1 μM DPTA-NONOate (2 μM NO), 1 hour exposure): 22%
- inhibition of L-arginine transport ([1]; 1 μM DPTA-NONOate (2 μM NO), 2 hour exposure): 24%
- inhibition of L-arginine transport ([1]; 1 μM DPTA-NONOate (2 μM NO), 4 hour exposure): 29%
- maximum inhibition of y+ transport ([1]; 1 μM, 2 hour exposure): 24%
- maximum inhibition of y+ transport ([1]; 10 μM, 2 hour exposure): 44%

Compound: COC(=O)[C@@H](N)CCCNC(=N)N[N+](=O)[O-] [L-NAME, n-ω-nitro-L-arginine methyl ester]
- reduction of acetylcholine-induced production of NO ([4]; buffer containing L-NAME 10^−3 M): 80%
- NO production in response to pravastatin ([4]; superfusion with L-NAME 10^−3 M): blunted
- block of increase in NO to ACH ([3]; ACH 10^−6 M, prior L-NAME): 86%
- block of increase in NO to DOX ([3]; DOX 10^−6 M, prior L-NAME 5×10^−4 M): 72%
- inhibition of O2*— production induced by A-23187 [2]: 58%
- reduction of O2*— induced by SP [2]: 81%
- prevention of basal production of O2*— [2]: 100%

Compound: N=C(N)NCCC[C@H](N)C(=O)O [L-arginine]
- acetylcholine-elicited production of NO ([4]; L-NAME buffer replaced with buffer containing L-arginine 10^−3 M): returned to control levels
- NO production in response to pravastatin ([4]; subsequent perfusion with buffer containing L-arginine 10^−3 M): return in NO production to a level above the amount induced by the Pravastatin in control (basis) buffer
- accentuation of NO responses to ACH ([3]; supplemental L-arginine): 72%
- accentuation of NO responses to DOX ([3]; supplemental L-arginine 5×10^−4 M): 65%
- inhibition of O2*— production induced by A-23187 [2]: 60%
- reduction of O2*— induced by SP [2]: 51%
- prevention of basal production of O2*— [2]: not

Compound: CC(=O)OCC[N+](C)(C)C [acetylcholine]
- increase of [3H]-LA uptake ([1]; 2 minute exposure): 22%
- increase of [3H]-LA uptake ([1]; 15 minute (maximum)): 27%
- increase of [3H]-LA uptake ([1]; 30 minutes): 16%
- increase of [3H]-LA uptake ([1]; 60 minutes): 15.5%

Compound: CC[C@H](C)C(=O)O[C@H]1C[C@H](O)C=C2C=C[C@H](C)[C@H](CC[C@@H](O)C[C@@H](O)CC(=O)O)[C@H]21 [pravastatin]
- increment in NO response to the 10^−5 M concentration ([4]; pravastatin 10^−5 M, larger than that of acetylcholine): ~3 X

Compound: substance P [SP]
- increase of y+ transport of L-arginine ([1]; 15-minutes exposure): 24%
- increase of y+ transport of L-arginine ([1]; 30 minutes): 24%
- increase of y+ transport of L-arginine ([1]; 60 minutes): 21%
- increase of y+ transporter activity from control ([1]; 2 hour exposure): 34%
- increase of y+ transporter activity from control ([1]; 3 hour exposure): 27%
- increase of y+ transporter activity from control ([1]; 5 hour exposure): 21%
- increase of O2*— production above basal levels [2]: 3.5 fold
